Several values for one entry are separate records, joined by “and”; a condition that tells them apart may be missing. Equal entries are not always repeated. Where two headings read alike, the source gives them in different places.
Columns and labels:
Format in all cases: cell-based, human
[1] = tested on: Flag-BCL-xL (WT and lysine mutants); assay: Degradation of Flag-BCL-xL WT and lysine mutants in transfected 293T cells; details: DMSO = 100
Procedure: Cells were collected, washed once with ice-cold phosphate-buffered saline, pH 7.2 (PBS, cat. no. 20012027; Thermo Fisher Scientific) and lysed in RIPA lysis buffer (Cat. No. BP-115DG, Boston Bio Products, Ashland, MA, USA) supplemented with protease and phosphatase inhibitor cocktails (Cat. No. PPC1010, Sigma-Aldrich, St. Louis, MO, USA) through sonication. The samples were centrifuged at 14,000 r.p.m. for 5 min and the supernatants were transferred into a new tube. The protein concentration in the supernatants was determined using the Pierce BCA protein Assay kit (cat. no. 23225, Thermo Fisher Scientific). The protein concentration was normalized, and the samples were reduced in 4× Laemmli’s SDS-sample buffer (cat. no. BP-110R, Boston Bio Products) and denatured at 95 °C for 5 min. An equal amount of protein samples (20–40 μg per lane) were resolved using precast 4–20% Tris-glycine gels (Mini-PROTEAN TGX, cat. no. 456–1094, Bio-Rad), and resolved proteins were transferred onto 0.2-µm pore size polyvinylidene difluoride (PVDF) blotting membranes (cat. no. LC2002, Thermo Fisher Scientific) using mini trans-blot electrophoretic transfer cell (Bio-Rad). The membranes were blocked with non-fat dry milk (5% wt/vol) in 1× Tris-buffered saline-Tween-20 (TBST, cat. no. J77500, Affymetrix) for 1 h at room temperature, and were subsequently probed with primary antibodies at a predetermined optimal concentration in non-fat dry milk (5% wt/vol in TBST) overnight at 4 °C. The membranes were washed three times (5 min each) in TBST and then incubated with horse radish peroxidase (HRP)-conjugated secondary antibodies for 1 h at room temperature. Following sufficient washing with TBST, the membranes were exposed with chemiluminescent HRP substrate (cat. no. WBKLS0500, MilliporeSigma), and the signal was detected using the ChemiDoc MP Imaging System (Bio-Rad) and quantified using the ImageJ (v1.53a) software from NIH.
Plasmids were purified on miniprep columns according to the manufacturer’s protocol (Cat. No. 27106 Qiagen, Germantown, MD, USA). The construction of Flag-BCL-xL (pDL2009) and Flag-BCL-xL-K-ko (pDL2129) were described previously. Flag-BCL-2 was a gift from Clark Distelhorst (Addgene plasmid # 18003, Watertown, MA, USA). Plasmids Flag-BCL-xL-K16-only, Flag-BCL-xL-K20-only, Flag-BCL-xL-K157-only, Flag-BCL-xL-K-ko-R34K, Flag-BCL-xL-K-ko-R102K, Flag-BCL-xL-K-ko-R132K, Flag-BCL-xL-K-ko-G186K, Flag-BCL-2-K17R, Flag-BCL-2-K22R, and Flag-BCL-2-K17/22R were constructed by using Q5® Site-Directed Mutagenesis Kit (Cat. No. E0554S, NEB, Ipswich, MA, USA) and the following primer sets. Flag-BCL-xL-K-ko (pDL2129) or Flag-BCL-2 was used as the template. Flag-BCL-xL-K16-only: forward (5′-[…]a[…]-3′) and reverse (5′-[…]-3′); Flag-BCL-xL-K20-only: forward (5′-[…]a[…]-3′) and reverse (5′-[…]-3′); Flag-BCL-xL-K157-only: forward (5′-[…]a[…]-3′) and reverse (5′-[…]-3′); Flag-BCL-xL-R34K: forward (5′-[…]a[…]-3′) and reverse (5′-[…]-3′); Flag-BCL-xL-R102K: forward (5′-[…]aa[…]-3′) and reverse (5′-[…]-3′); Flag-BCL-xL-R132K: forward (5′-[…]aa[…]-3′) and reverse (5′-[…]-3′); Flag-BCL-xL-G186K: forward (5′-[…]aa[…]-3′) and reverse (5′-[…]-3′); Flag-BCL-2-K17R: forward (5′-[…]g[…]-3′) and reverse (5′-[…]-3′); Flag-BCL-2-K22R: forward (5′-[…]g[…]-3′) and reverse (5′-[…]-3′); Flag-BCL-2-K17/22R: forward (5′-cattatag[…]-3′) and reverse (5′-gatgtacc[…]-3′). DNA sequences in all these plasmids were authenticated by automatic sequencing. […] The cells were harvested using RIPA lysis buffer containing protease and phosphatase inhibitor as mentioned above. The primers used in this study are also listed in Supplementary Table 1.

[2] = Viability (MTS) of Hela cells; details: human, Hela cells; for viability at 72 h, 0.00137174 uM: MTS absorbance 490, Conc 0.00137174 uM; for viability at 72 h, 0.00411523 uM: MTS absorbance 490, Conc 0.00411523 uM; for viability at 72 h, 0.037037 uM: MTS absorbance 490, Conc 0.037037 uM; for viability at 72 h, 0.111111 uM: MTS absorbance 490, Conc 0.111111 uM; for viability at 72 h, 0.333333 uM: MTS absorbance 490, Conc 0.333333 uM; for viability at 72 h, 1 uM: MTS absorbance 490, Conc 1 uM; for viability at 72 h, 3 uM: MTS absorbance 490, Conc 3 uM
Outline: (§1)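 Adherent cells treated after overnight attachment, nine concentrations in triplicate. After 72 h, MTS/PMS added and incubated 4 h at 37 °C before absorbance at 490 nm. Background-subtracted viability expressed as percent of untreated controls and fitted by non-linear regression.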

[3] = Viability (MTS) of 293T cells; details: human
Outline: as §1

[4] = read-out: cell viability normalised to control wells (mean of three replicates)
[5] = read-out: cell viability normalised to control wells (single replicate)
[6] = 293T cell viability, MTS absorbance 490 as percent of untreated control, mean of three wells, mean of 3 wells, normalised to own plate
[7] = 293T cell viability, MTS absorbance 490 as percent of untreated control, single replicate well, replicate well, normalised to own plate
[8] = 293T cell viability, MTS absorbance 490 as percent of untreated control, single replicate well, 3 uM, replicate well, normalised to own plate

Structure (SMILES) | viability at 72 h, 0.00137174 uM [2, 4] | viability at 72 h, 0.00137174 uM [2, 5] | viability at 72 h, 0.00411523 uM [2, 4] | viability at 72 h, 0.00411523 uM [2, 5] | viability at 72 h, 0.037037 uM [2, 4] | viability at 72 h, 0.037037 uM [2, 5] | viability at 72 h, 0.111111 uM [2, 4] | viability at 72 h, 0.333333 uM [2, 4] | viability at 72 h, 0.333333 uM [2, 5] | viability at 72 h, 1 uM [2, 4] | viability at 72 h, 1 uM [2, 5] | viability at 72 h, 3 uM [2, 4] | viability at 72 h, 3 uM [2, 5] | viability at 72 h, 0.00137174 µM [3] | viability at 72 h, 0.00411523 µM [3] | viability at 72 h, 3 µM [3, 8] | other results
Cc1ncsc1-c1ccc([C@H](C)NC(=O)[C@@H]2C[C@@H](O)CN2C(=O)[C@@H](NC(=O)CCCCCCC(=O)N2CCN(C[C@]3(C)CCC(c4ccc(Cl)cc4)=C(CN4CCN(c5ccc(C(=O)NS(=O)(=O)c6ccc(N[C@H](CCN7CCOCC7)CSc7ccccc7)c(S(=O)(=O)C(F)(F)F)c6)cc5)CC4)C3)CC2)C(C)(C)C)cc1 [753b] |  |  |  |  |  |  |  |  |  |  |  |  |  |  |  |  | relative Flag-BCL-xL protein content ([1]; K16-only mutant, 753b-treated 293T, Fig. 5a): 86 and 85 and 66; relative Flag-BCL-xL protein content ([1]; K20-only mutant, 753b-treated 293T, Fig. 5a): 29 and 42 and 46; relative Flag-BCL-xL protein content ([1]; WT Flag-BCL-xL, 753b-treated 293T, Fig. 5a, 3 replicates): 34 and 30 and 42
CC1(C)CCC(c2ccc(Cl)cc2)=C(CN2CCN(c3ccc(C(=O)NS(=O)(=O)c4ccc(N[C@H](CCN5CCOCC5)CSc5ccccc5)c(S(=O)(=O)C(F)(F)F)c4)cc3)CC2)C1 [ABT263, navitoclax] | 108% | 115% | 99.8% | 106% | 97% | 103% | 89.9% | 80.4% | 80.9% | 81% | 76.8% | 80.1% | 83.1% | 96.2% | 94.4% | 60.7% | viability at 72 h, 0.037037 µM ([3]; 293T cell viability, MTS absorbance 490 as percent of untreated control, mean of three wells, 0.037037 uM, mean of 3 wells, normalised to own plate): 107%; viability at 72 h, 0.111111 µM ([3]; 293T cell viability, MTS absorbance 490 as percent of untreated control, mean of three wells, 0.111111 uM, mean of 3 wells, normalised to own plate): 113%; viability at 72 h, 0.333333 µM [3, 6]: 103%; viability at 72 h, 1 µM [3, 6]: 98.5%; viability at 72 h, 3 µM ([3]; 293T cell viability, MTS absorbance 490 as percent of untreated control, mean of three wells, 3 uM, mean of 3 wells, normalised to own plate): 61.1%; viability at 72 h, 0.333333 µM [3, 7]: 94.3%; viability at 72 h, 1 µM [3, 7]: 93.3%
Cc1ncsc1-c1ccc([C@H](C)NC(=O)[C@@H]2C[C@@H](O)CN2C(=O)[C@@H](NC(=O)CCCCCC(=O)N2CCN(CC[C@H](CSc3ccccc3)Nc3ccc(S(=O)(=O)NC(=O)c4ccc(N5CCN(CC6=C(c7ccc(Cl)cc7)CCC(C)(C)C6)CC5)cc4)cc3S(=O)(=O)C(F)(F)F)CC2)C(C)(C)C)cc1 [DT2216] | 87.9% | 92.3% | 90.6% | 96.4% | 88.1% | 89.4% | 89.7% | 96.4% | 102% | 82.9% | 80.4% | 82.1% | 78.4% | 106% | 104% | 89.4% | relative Flag-BCL-xL protein content ([1]; K157-only mutant, DT2216-treated 293T, Fig. 1f): 91 and 97 and 105; relative Flag-BCL-xL protein content ([1]; K-ko mutant, DT2216-treated 293T, Fig. 1f): 95 and 102 and 90; relative Flag-BCL-xL protein content ([1]; K-ko-G186K mutant, DT2216-treated 293T, Fig. 1f): 81 and 88 and 95; relative Flag-BCL-xL protein content ([1]; K-ko-R34K mutant, DT2216-treated 293T, Fig. 1f): 50 and 41 and 44; relative Flag-BCL-xL protein content ([1]; K-ko-R102K mutant, DT2216-treated 293T, Fig. 1f): 64 and 57 and 51; relative Flag-BCL-xL protein content ([1]; K-ko-R132K mutant, DT2216-treated 293T, Fig. 1f): 55 and 50 and 58; relative Flag-BCL-xL protein content ([1]; WT Flag-BCL-xL, DT2216-treated 293T, Fig. 1f, 3 replicates): 7 and 33 and 22; viability at 72 h, 0.111111 uM [2, 5]: 92.2%; viability at 72 h, 0.037037 µM [3]: 106%; viability at 72 h, 0.111111 µM [3]: 110%; viability at 72 h, 3 µM [3]: 90.6%; viability at 72 h, 0.037037 µM ([3]; 293T cell viability, MTS absorbance 490 as percent of untreated control, single replicate well, 0.037037 uM, replicate well, normalised to own plate): 105%; viability at 72 h, 0.111111 µM ([3]; 293T cell viability, MTS absorbance 490 as percent of untreated control, single replicate well, 0.111111 uM, replicate well, normalised to own plate): 109%

Reference: PMC8617031, “Development of a BCL-xL and BCL-2 dual degrader with improved anti-leukemic activity,” (Nature Communications, 2021)
